13 compounds from patent US7491723B2, “Alkanol and cycloalkanol-amine derivatives and methods of their use” (Wyeth, priority 2003, dated 2009) can be followed below.

Assay [1] has as its target T1, human hNET (Homo sapiens, UniProt P23975).
T1 construct: expressed in transfected cells
The assay can be described thus: Norepinephrine (NE) uptake assay in MDCK-Net6 cells. The class given is cell-based. The settings on record: at 30 μM test compound, [3H]NE uptake.

Assay [2] deals with T1, human hNET. The description is as above. The conditions noted are these: [3H]NE uptake; for inhibition at 10 µM: at 10 μM test compound; for inhibition at 1 µM: 1 μM test compound. The class given is cell-based. The procedure:
MDCK-Net6 cells, stably transfected with human hNET (Pacholczyk, T., R. D. Blakely, and S. G. Amara, Nature, 1991, 350(6316): p. 350-4) were cultured in growth medium containing high glucose DMEM (Gibco, Cat. No. 11995), 10% FBS (dialyzed, heat-inactivated, US Bio-Technologies, Lot FBD1129HI) and 500 μg/ml G418 (Gibco, Cat. No. 10131). Cells were plated at 300,000/T75 flask and cells were split twice weekly. The JAR cell line (human placental choriocarcinoma) was purchased from ATCC (Cat. No. HTB-144). The cells were cultured in growth medium containing RPMI 1640 (Gibco, Cat. No. 72400), 10% FBS (Irvine, Cat. No. 3000), 1% sodium pyruvate (Gibco, Cat. No. 1136) and 0.25% glucose. Cells were plated at 250,000 cells/T75 flask and split twice weekly. For all assays, cells were plated in Wallac 96-well sterile plates (PerkinElmer, Cat. No. 3983498).
On day 1, cells were plated at 3,000 cells/well in growth medium and maintained in a cell incubator (37° C., 5% CO2). On day 2, growth medium was replaced with 200 μl of assay buffer (25 mM HEPES; 120 mM NaCl; 5 mM KCl; 2.5 mM CaCl2; 1.2 mM MgSO4; 2 mg/ml glucose (pH 7.4, 37° C.)) containing 0.2 mg/ml ascorbic acid and 10 μM pargyline. Plates containing cells with 200 μl of assay buffer were equilibrated for 10 minutes at 37° C. prior to addition of compounds. A stock solution of desipramine was prepared in DMSO (10 mM) and delivered to triplicate wells containing cells for a final test concentration of 1 μM. Data from these wells were used to define non-specific NE uptake (minimum NE uptake). Test compounds were prepared in DMSO (10 mM) and diluted in assay buffer according to test range (1 to 10,000 nM). Twenty-five microliters of assay buffer (maximum NE uptake) or test compound were added directly to triplicate wells containing cells in 200 μl of assay buffer. The cells in assay buffer with test compounds were incubated for 20 minutes at 37° C. To initiate the NE uptake, [^3H]NE diluted in assay buffer (120 nM final assay concentration) was delivered in 25 μl aliquots to each well and the plates were incubated for 5 minutes (37° C.). The reaction was terminated by decanting the supernatant from the plate. The plates containing cells were washed twice with 200 μl assay buffer (37° C.) to remove free radioligand. The plates were then inverted, left to dry for 2 minutes, then reinverted and air-dried for an additional 10 minutes. The cells were lysed in 25 μl of 0.25 N NaOH solution (4° C.), placed on a shake table and vigorously shaken for 5 minutes. After cell lysis, 75 μl of scintillation cocktail was added to each well and the plates were sealed with film tape. The plates were returned to the shake table and vigorously shaken for a minimum of 10 minutes to ensure adequate partitioning of organic and aqueous solutions. The plates were counted in a Wallac Microbeta counter (PerkinElmer) to collect the raw cpm data.
For each experiment, a data stream of cpm values collected from the Wallac Microbeta counter was downloaded to a Microsoft Excel statistical application program. Calculations of EC50 values were made using the transformed-both-sides logistic dose response program written by Wyeth Biometrics Department. The statistical program uses mean cpm values from wells representing maximum binding or uptake (assay buffer) and mean cpm values from wells representing minimum binding or uptake ((1 μM desipramine (hNET) or 1 μM paroxetine (hSERT)). Estimation of the EC50 value was completed on a log scale and the line was fit between the maximum and minimum binding or uptake values. All graphic data representation was generated by normalizing each data point to a mean percent based on the maximum and minimum binding or uptake values. The EC50 values reported from multiple experiments were calculated by pooling the raw data from each experiment and analyzing the pooled data as one experiment.

Structures are written as SMILES. Structures can show the parent of a compound that is named as a salt.

T1 sequence (P23975 whole entry): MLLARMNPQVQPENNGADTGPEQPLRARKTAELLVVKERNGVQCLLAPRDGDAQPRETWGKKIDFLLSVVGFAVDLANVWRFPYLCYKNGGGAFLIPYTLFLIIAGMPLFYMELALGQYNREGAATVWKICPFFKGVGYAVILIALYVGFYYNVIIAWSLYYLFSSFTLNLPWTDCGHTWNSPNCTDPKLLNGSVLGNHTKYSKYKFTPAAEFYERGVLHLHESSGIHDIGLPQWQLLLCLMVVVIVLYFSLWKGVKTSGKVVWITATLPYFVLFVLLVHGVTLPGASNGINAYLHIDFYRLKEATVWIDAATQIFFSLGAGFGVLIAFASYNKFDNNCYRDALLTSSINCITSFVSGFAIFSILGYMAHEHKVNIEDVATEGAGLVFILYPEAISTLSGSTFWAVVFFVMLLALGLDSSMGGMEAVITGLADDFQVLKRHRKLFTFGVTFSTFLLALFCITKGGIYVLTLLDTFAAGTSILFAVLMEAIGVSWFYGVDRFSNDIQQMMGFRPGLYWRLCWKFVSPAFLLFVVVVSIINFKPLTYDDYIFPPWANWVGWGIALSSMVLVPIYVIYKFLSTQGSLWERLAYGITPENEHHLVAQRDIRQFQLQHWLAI

Compound `CC1(C)CC(C)(C)CC(O)(C(CN2CCNCC2)c2cccc(Br)c2)C1` (stereo not shown) [Example 87, 1-[1-(3-bromophenyl)-2-piperazin-1-ylethyl]-3,3,5,5-tetramethylcyclohexanol dihydrochloride] had an inhibition at 30 µM in assay [1] of 47%.
Same read-out and setting: the result for `CCC(O)(CC)C(CN1CCN(C)CC1)c1cccc(Cl)c1` (stereo not shown) [Example 94, 2-(3-chlorophenyl)-3-ethyl-1-(4-methylpiperazin-1-yl)pentan-3-ol dihydrochloride] reads 71%; that for `CC(C)(C)C1CCC(O)(C(CN2CCNCC2)c2cccc(Br)c2)CC1` (stereo not shown) [Example 96, 1-[1-(3-bromophenyl)-2-piperazin-1-ylethyl]-4-tert-butylcyclohexanol dihydrochloride], 100%; that for `CN1CCN(CC(c2cccc(Cl)c2)C2(O)CCC(C(C)(C)C)CC2)CC1` (stereo not shown) [Example 101, 4-tert-butyl-1-[1-(3-chlorophenyl)-2-(4-methylpiperazin-1-yl)ethyl]cyclohexanol dihydrochloride], 100%.
For `OC1(C(CN2CCNCC2)c2cccc(Br)c2)CCOCC1` (stereo not shown) [Example 103, 4-[1-(3-bromophenyl)-2-piperazin-1-ylethyl]tetrahydro-2H-pyran-4-ol dihydrochloride], 30 µM produced 69% inhibition in assay [1].
Same read-out and setting: next, `OC1(C(CN2CCNCC2)c2cccc(Br)c2)C2CC3CC(C2)CC1C3` (stereo not shown) [Example 107, 2-[1-(3-bromophenyl)-2-piperazin-1-ylethyl]adamantan-2-ol dihydrochloride]: 67%; `COc1ccc(C(CN2CCNCC2)C2(O)CCOCC2)cc1Br` (stereo not shown) [Example 110, 4-[1-(3-bromo-4-methoxyphenyl)-2-piperazin-1-ylethyl]tetrahydro-2H-pyran-4-ol dihydrochloride]: 54%.
Compound `OC1(C(CN2CCNCC2)c2cccc3ccccc23)CCC2CCCCC2C1` (stereo not shown) [Example 329, 2-[1-(1-naphthyl)-2-piperazin-1-ylethyl]decahydronaphthalen-2-ol dihydrochloride] had an inhibition at 10 µM in assay [2] of 20.9%.
Compound `CN1CCN(CC(c2cccc(Cl)c2)C2(O)CCCC3CCCCC32)CC1` (stereo not shown) [Example 331, 1-[1-(3-chlorophenyl)-2-(4-methylpiperazin-1-yl)ethyl]decahydronaphthalen-1-ol dihydrochloride] yielded an inhibition at 10 µM in assay [2] of 11.4%.
On to `CN1CCN(CC(c2cccc(Cl)c2)C2(O)CCC3CCCCC3C2)CC1` (stereo not shown) [Example 332, 2-[1-(3-chlorophenyl)-2-(4-methypiperazin-1-yl)ethyl]decahydronaphthalen-2-ol dihydrochloride], for which, in assay [2], the inhibition at 1 µM was 41%.
On to `CC1CCC(O)(C(CN2CCNCC2)c2cccc(Cl)c2)CC1` (stereo not shown) [Example 334, 1-[1-(3-chlorophenyl)-2-piperazin-1-ylethyl]-4-methylcyclohexanol dihydrochloride], for which the inhibition at 1 µM in assay [2] is 71.7%.
Same read-out and setting: the result for `CC1CCC(O)(C(CN2CCN(C)CC2)c2cccc(Cl)c2)CC1` (stereo not shown) [Example 335, 1-[1-(3-chlorophenyl)-2-(4-methylpiperazin-1-yl)ethyl]-4-methylcyclohexanol dihydrochloride] reads 49.5%; that for `CCC1CCC(O)(C(CN2CCN(C)CC2)c2cccc(Cl)c2)CC1` (stereo not shown) [Example 336, 1-[1-(3-chlorophenyl)-2-(4-methylpiperazin-1-yl)ethyl]-4-ethylcyclohexanol dihydrochloride], 29%.

In general, inhibition refers to the share of the control response that was lost under treatment.
